Our source for the IC50 values is US20250084094A1 (Vertex Pharmaceuticals Incorporated, priority 2021, published 2025).

The target in the assay is T1, APOL1 (Homo sapiens, UniProt O14791).
T1 sequence (O14791 1-398 S342G/I384M): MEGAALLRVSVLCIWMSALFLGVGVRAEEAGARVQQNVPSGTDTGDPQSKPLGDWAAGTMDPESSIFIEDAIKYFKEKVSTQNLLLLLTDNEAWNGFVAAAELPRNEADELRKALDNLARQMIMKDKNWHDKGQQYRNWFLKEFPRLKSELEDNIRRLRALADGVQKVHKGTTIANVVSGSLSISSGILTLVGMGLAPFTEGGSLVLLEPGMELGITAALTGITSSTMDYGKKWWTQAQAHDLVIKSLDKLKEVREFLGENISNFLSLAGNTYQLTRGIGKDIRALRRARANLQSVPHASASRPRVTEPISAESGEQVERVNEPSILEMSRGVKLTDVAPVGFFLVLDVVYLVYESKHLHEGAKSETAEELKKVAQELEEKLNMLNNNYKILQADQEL
The experiment in a line: MultiTox-Fluor Multiplex Cytotoxicity Assay in tet-inducible APOL1 T-REx-HEK293 cells. The assay is classed as cell-based. The settings on record: tet-inducible transgenic APOL1 T-REx-HEK293 cell lines, 50 ng/mL tet, 24 hours, ratio of dead to live cells; read-out: IP50 (nM) (i.e., IC50 for cell proliferation). The protocol:
The MultiTox-Fluor Multiplex Cytotoxicity Assay is a single-reagent-addition, homogeneous, fluorescence assay that measures the number of live and dead cells simultaneously in culture wells. The assay measures cell viability and cytotoxicity by detecting two distinct protease activities. The live-cell protease activity is restricted to intact viable cells and is measured using a fluorogenic, cell-permeant peptide glycyl-phenylalanylamino fluorocoumarin (GF-AFC) substrate. The substrate enters intact cells, where it is cleaved to generate a fluorescent signal proportional to the number of living cells. […] A second, cell-impermeant, fluorogenic peptide substrate (bis-AAF-R110 Substrate) is used to measure dead-cell protease that has been released from cells that have lost membrane integrity. A ratio of dead to live cells is used to normalize data.
Briefly, the tet-inducible transgenic APOL1 T-REx-HEK293 cell lines were incubated with 50 ng/mL tet to induce APOL1 in the presence of 3-(2-(4-fluorophenyl)-1H-indol-3-yl)-N-((3S,4R)-4-hydroxy-2-oxopyrrolidin-3-yl)propenamide at 10.03, 3.24, 1.13, 0.356, 0.129, 0.042, 0.129, 0.0045, 0.0015, 0.0005 μM in duplicate for 24 hours in a humidified 37° C. incubator. The MultiTox reagent was added to each well and placed back in the incubator for an additional 30 minutes. The plate was read on the EnVision plate reader. A ratio of dead to live cells was used to normalize, and data was imported, analyzed, and fit using Genedata Screener (Basel, Switzerland) software. Data was normalized using percent of control, no tet (100% viability), and 50 ng/mL tet treated (0% viability),and fit using Smart Fit. The reagents, methods, and complete protocol for the MultiTox assay are described below.
Human embryonic kidney (HEK293) cell lines containing a tet-inducible expression system (T-REx™; Invitrogen, Carlsbad, CA) and Adeno-associated virus site 1 pAAVS1-Puro-APOL1 G0 or pAAVS1-Puro-APOL1 G1 or pAAVS1-Puro-APOL1 G2 Clones G0 DC2.13, Gi DC3.25, and G2 DC4.44 were grown in a T-225 flask at ˜90% confluency in cell growth media (DMEM, 10% Tet-free FBS, 2 mM L-glutamine, 100 Units/mL penicillin-streptomycin, 5 μg/mL blasticidin S HCl, 1 μg/mL puromycin dihydrochloride). Cells were washed with DPBS and then trypsinized to dissociate from the flask. Media was used to quench the trypsin, cells were then pelleted at 200 g and resuspended in fresh cell assay media (DMEM, 2% Tet-free FBS, 2 mM L-glutamine, 100 Units/mL penicillin-streptomycin). Cells were counted and diluted to 1.17×10^6 cells/mL. 20 μL of cells (23,400/well) were dispensed in every well of a 384-well Poly-D-Lysine coated plate using the Multidrop dispenser. The plates were then incubated at room temperature for one hour.
Tetracycline is needed to induce APOL1 expression. 1 mg/mL tet stock in water was diluted to 250 ng/mL (5×) in cell assay media. 60 μL of cell assay media (no tet control) was dispensed in columns 1 and 24, and 60 μL of 5× tet in 384-PP-round bottom plate was dispensed in columns 2 to 23 with the Multidrop dispenser.
Assay ready plates from the Global Compound Archive were ordered using template 384_APOLICell_DR10n2_50 uM_v3. Compounds were dispensed at 200 nL in DMSO. The final top concentration was 10 μM with a 10 point 3-fold dilution in duplicate in the MultiTox assay.
20 μL was transferred from the 5× tet plate to the ARP and mixed, then 5 μL of 5× tet and the compounds were transferred to the cell plate and mixed using the Bravo. The cell plate was placed in the humidified 37° C. 5% CO2 incubator for 24 hours.
The MultiTox-Fluor Multiplex Cytotoxicity Assay was performed in accordance with the manufacturer's protocol. After cells were incubated with tet and compound for 24 hours, 25 μL of 1x MultiTox reagent was added to each well using the Multidrop dispenser; the plates were placed on a plate shaker (600 rpm) for 2 minutes, then centrifuged briefly and placed back in the 37° C. incubator for 30 minutes. […]
Take `C[C@H]1C[C@@]2(C[C@@H](c3cn(C)nn3)N1)C(=O)Nc1ccc(Cl)cc12` [Compound 35, (2′S,3S,6′S)-5-chloro-2′-methyl-6′-(1-methyltriazol-4-yl)spiro[indoline-3,4′-piperidine]-2-one]: the IC50 was less than 50 nM.

On to `C[C@H]1C[C@@]2(C[C@@H](c3cn(C)nn3)N1)C(=O)Nc1cc(Cl)ccc12` [Compound 36, (2′S,3S,6′S)-6-chloro-2′-methyl-6′-(1-methyltriazol-4-yl)spiro[indoline-3,4′-piperidine]-2-one], for which the IC50 was less than 50 nM.

Regarding `C[C@H]1C[C@@]2(C[C@@H](c3cn(C)nn3)N1)C(=O)Nc1ccc(C(F)(F)F)cc12` [Compound 37, (2′S,3S,6′S)-2′-methyl-6′-(1-methyltriazol-4-yl)-5-(trifluoromethyl)spiro[indoline-3,4′-piperidine]-2-one], the IC50 is less than 50 nM.

For `C[C@H]1C[C@@]2(C[C@@H](c3cn(C)nn3)N1)C(=O)Nc1cc(C(F)(F)F)ccc12` [Compound 38, (2′S,3S,6′S)-2′-methyl-6′-(1-methyltriazol-4-yl)-6-(trifluoromethyl)spiro[indoline-3,4′-piperidine]-2-one], the IC50 is less than 50 nM.

For the molecule `C[C@H]1CC2(C[C@@H](c3cn(C)nn3)N1)OC(C(N)=O)c1cc(Cl)ccc12` (stereo partly drawn) [Compound 39, (2′S,6′S)-6-chloro-2′-methyl-6′-(1-methyltriazol-4-yl)spiro[1H-isobenzofuran-3,4′-piperidine]-1-carboxamide], the IC50 was less than 50 nM.

In the case of `C[C@H]1CC2(C[C@@H](c3cn(C)nn3)N1)OC(C(N)=O)c1ccc(Cl)cc12` (stereo partly drawn) [Compound 41, (2′S,6′S)-5-chloro-2′-methyl-6′-(1-methyltriazol-4-yl)spiro[1H-isobenzofuran-3,4′-piperidine]-1-carboxamide], the IC50 is less than 50 nM.
